Read-outs that look alike come from different tables or passages of the source.
What was measured:
Type in all cases: in vivo
[1] = test system: Leptosphaeria nodorum on wheat; assay: Greenhouse trial, 4 day residual, Leptosphaeria nodorum on wheat; conditions: Parastagonospora nodorum, 96 h, read-out: Observed Efficacy
Description: (§1) The fungicides are applied in single treatments, or in a combination comprising a benzophenone of formula I and a compound selected from (A) through (E) as defined above. The compounds are applied in form of an aqueous spray mix obtained from a concentrated formulation or the technical material.
(§2) 1. Seed is planted in 6 cm diameter plastic pots and maintained in the greenhouse.
(§3) 2. When the primary leaf is fully expanded (in the case of cereals) or several leaves are present (in the case of dicots), formulated test compounds are sprayed with a three nozzle overhead fungicide sprayer to near run-off. Alternatively, a single nozzle overhead track sprayer is used for application of the compounds to cereals at a rate of 200 liters/ha (l/ha). Plants are then allowed to air-dry.
(§4) 3. Inoculation precedes treatment in the case of curative evaluations and follows treatment in case of residual evaluations. For inoculation of powdery mildew disease, plants are set up on greenhouse benches with bottom watering mats and inoculated by dusting them with conidia from infected plants. Between inoculation and treatment for curative evaluations and between treatment and inoculation for residual evaluations, plants are maintained in the greenhouse with bottom watering. For inoculation of non-powdery mildew diseases, an aqueous spore suspension of the pathogen is applied to the plant and the plants are kept 1-2 days in a moist infection chamber before being returned to the greenhouse where they are maintained by bottom watering.
(§5) 4. Disease on the foliage as percent leaf area with disease symptoms/signs is evaluated about 7 days after inoculation. In the case of wheat, the tips and bases of the leaves are excluded from the evaluation. [formula]
(§6) 1. Technical compounds are formulated in a solvent/surfactant system consisting of 5% acetone and 0.05% Tween 20 in deionized water. Compounds are dissolved in acetone prior to addition of the water; the Tween 20 can be added through either the acetone or the water. Dilutions are made using the solvent/surfactant system. Formulated compounds are prepared using deionized water.
(§7) Assessments of the diseases took place at the indicated day after the application of the compounds. Per cent infected leaf area infected was evaluated. The efficacy of the compounds/compounds mixtures to control the diseases was calculated by using the formula given above under item 4: […]
(§8) Synergy of a fungicide mixture was determined by comparing the actual (observed) fungicidal activity of the mixture to the expected fungicidal activity of the mixture as calculated using the COLBY formula given hereinabove.
Fungicidal Efficacy of the Mixture of BP-4+Other Fungicides (4 Day Residual) Against Leptosphaeria nodorum on Wheat

[2] = test system: Puccinia recondita on wheat; assay: Greenhouse trial, 4 day residual, Puccinia recondita on wheat; conditions: for pest or weed control at 4 ppm / pest or weed control at 16 ppm / pest or weed control at 64 ppm / pest or weed control at 256 ppm / pest or weed control at 0.4 ppm / pest or weed control at 2 ppm / pest or weed control at 10 ppm / pest or weed control at 50 ppm: Puccinia recondita, 96 h, read-out: Observed Efficacy; for pest or weed control at 4 ppm / pest or weed control at 16 ppm / pest or weed control at 64 ppm / pest or weed control at 256 ppm / Observed Efficacy: compound alone; for pest or weed control at 4 ppm: dose rate 4 ppm; for pest or weed control at 0.4 ppm / pest or weed control at 2 ppm / pest or weed control at 10 ppm / pest or weed control at 50 ppm: Table XV (Example 15), 4 day residual; for pest or weed control at 0.4 ppm: dose rate 0.4 ppm; for pest or weed control at 2 ppm: dose rate 2 ppm; for pest or weed control at 10 ppm: dose rate 10 ppm; for pest or weed control at 50 ppm: dose rate 50 ppm
Description: as §1, §2, §3, §4, §5, §6, §7, §8
Fungicidal Efficacy of the Mixture of BP-4+Other Fungicides (4 Day Residual) Against Puccinia recondita on Wheat
Fungicidal Efficacy of the Mixture of BP-4+Myclobutanil (4 Day Residual) Against Puccinia recondita on Wheat

[3] = test system: Erysiphe cichoracearum on cucumbers; assay: Greenhouse trial, 4 day residual, Erysiphe cichoracearum on cucumbers; conditions: for pest or weed control at 0.4 ppm: dose rate 0.4 ppm; for pest or weed control at 2 ppm: dose rate 2 ppm; for pest or weed control at 10 ppm: dose rate 10 ppm; for pest or weed control at 50 ppm: dose rate 50 ppm
Description: as §1, §2, §3, §4, §5, §6, §7, §8

[4] = Golovinomyces cichoracearum, 96 h, Table XIV (Example 14), 4 day residual, read-out: Observed Efficacy
[5] = Golovinomyces cichoracearum, 96 h, Table XI, compound alone, read-out: Observed Efficacy

`CCCCCCCCCCCCNC(=N)N` [Dodine] was tested, and the pest or weed control at 4 ppm [1] was 0%, the pest or weed control at 16 ppm [1] was 6% and the pest or weed control at 64 ppm [1] was 24%. It also gave a pest or weed control at 256 ppm [1] of 59%.

Molecule `N#Cc1c[nH]cc1-c1cccc(Cl)c1Cl` [Fenpiclonil] has a pest or weed control at 4 ppm ([2]; Table IX) of 1%, a pest or weed control at 16 ppm ([2]; Table IX, dose rate 16 ppm) of 0% and a pest or weed control at 64 ppm ([2]; Table IX, dose rate 64 ppm) of 18%. The pest or weed control at 256 ppm ([2]; Table IX, dose rate 256 ppm) was 58%.

For `CC(Cc1ccc(C(C)(C)C)cc1)CN1CCCCC1` (centres unmarked) [Fenpropidin], the pest or weed control at 4 ppm ([3]; Golovinomyces cichoracearum, 96 h, Table VI, compound alone, dose rate 4 ppm, read-out: Observed Efficacy) was 0%, the pest or weed control at 16 ppm ([3]; Golovinomyces cichoracearum, 96 h, Table VI, compound alone, dose rate 16 ppm, read-out: Observed Efficacy) was 6% and the pest or weed control at 64 ppm ([3]; Golovinomyces cichoracearum, 96 h, Table VI, compound alone, dose rate 64 ppm, read-out: Observed Efficacy) was 21%. It also gave a pest or weed control at 256 ppm ([3]; Golovinomyces cichoracearum, 96 h, Table VI, compound alone, dose rate 256 ppm, read-out: Observed Efficacy) of 69%, a pest or weed control at 4 ppm ([2]; Table VII) of 0% and a pest or weed control at 16 ppm ([2]; Table VII, dose rate 16 ppm) of 0%. The pest or weed control at 64 ppm ([2]; Table VII, dose rate 64 ppm) was 8%, the pest or weed control at 256 ppm ([2]; Table VII, dose rate 256 ppm) was 97% and the pest or weed control at 64 ppm ([1]; Table VIII, compound alone, dose rate 64 ppm) was 0%. The pest or weed control at 256 ppm ([1]; Table VIII, compound alone, dose rate 256 ppm) was 21%.

For `O=[N+]([O-])c1cc(C(F)(F)F)c(Cl)c([N+](=O)[O-])c1Nc1ncc(C(F)(F)F)cc1Cl` [Fluazinam], the pest or weed control at 4 ppm ([2]; Table IX) was 0%, the pest or weed control at 16 ppm ([2]; Table IX, dose rate 16 ppm) was 6% and the pest or weed control at 64 ppm ([2]; Table IX, dose rate 64 ppm) was 22%. It also gave a pest or weed control at 256 ppm ([2]; Table IX, dose rate 256 ppm) of 80%, a pest or weed control at 64 ppm ([1]; Table X, compound alone, dose rate 64 ppm) of 81% and a pest or weed control at 256 ppm ([1]; Table X, compound alone, dose rate 256 ppm) of 91%.

Molecule `COCC(=O)N(c1c(C)cccc1C)C(C)C(=O)OC` (centres unmarked) [Metalaxyl] has a pest or weed control at 64 ppm ([2]; Table IX, dose rate 64 ppm) of 0% and a pest or weed control at 256 ppm ([2]; Table IX, dose rate 256 ppm) of 12%.

Molecule `CCCC(Cn1cncn1)c1ccc(Cl)cc1Cl` (centres unmarked) [Penconazole] has a pest or weed control at 0.4 ppm [3, 4] of 6%, a pest or weed control at 2 ppm [3, 4] of 35% and a pest or weed control at 10 ppm [3, 4] of 37%. It also gave a pest or weed control at 50 ppm [3, 4] of 67%, a pest or weed control at 0.4 ppm [2] of 0% and a pest or weed control at 2 ppm [2] of 3%. For the same molecule, the pest or weed control at 10 ppm [2] was 10% and the pest or weed control at 50 ppm [2] was 26%.

In the case of `CC(C)(C)C(O)(CCc1ccc(Cl)cc1)Cn1cncn1` (centres unmarked) [Tebuconazole], the pest or weed control at 0.4 ppm [3, 5] is reported as 10%, the pest or weed control at 2 ppm [3, 5] is reported as 45% and the pest or weed control at 10 ppm [3, 5] is reported as 79%. The pest or weed control at 50 ppm [3, 5] was 95%.

With `CC(C)(C)C(O)C(Oc1ccc(Cl)cc1)n1cncn1` (centres unmarked) [Triadimenol] the pest or weed control at 0.4 ppm [3, 4] was 1%, the pest or weed control at 2 ppm [3, 4] was 21% and the pest or weed control at 10 ppm [3, 4] was 45%. It also gave a pest or weed control at 50 ppm [3, 4] of 68%, a pest or weed control at 0.4 ppm [2] of 1% and a pest or weed control at 2 ppm [2] of 21%. It also gave a pest or weed control at 10 ppm [2] of 69% and a pest or weed control at 50 ppm [2] of 98%.

In the case of Ethirimol, the “Observed Efficacy” value ([3]; Table VI, compound alone, dose rate 4 ppm) is reported as 50%, the “Observed Efficacy” value ([3]; Table VI, compound alone, dose rate 16 ppm) is reported as 83% and the “Observed Efficacy” value ([3]; Table VI, compound alone, dose rate 64 ppm) is reported as 94%. For the same molecule, the “Observed Efficacy” value ([3]; Table VI, compound alone, dose rate 256 ppm) was 100%, the “Observed Efficacy” value ([2]; Table VII, dose rate 16 ppm) was 0% and the “Observed Efficacy” value ([2]; Table VII, dose rate 64 ppm) was 0%. For the same molecule, the “Observed Efficacy” value ([2]; Table VII, dose rate 256 ppm) was 0%.

Source: patent US6346535B1, “Fungicidal mixtures” (American Cyanamid Company, priority 1999, dated 2002)
